Assay results reported in PubChem BioAssay (NCI).
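Here, GI50 denotes the concentration required for 50% inhibition of growth. TGI marks complete inhibition of growth.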

Tests used:
Test in all cases: NCI tumour cell line growth inhibition, 384-well format
786-0 renal = test system: 786-0 renal
A498 renal = test system: A498 renal
A549 NSCLC = test system: A549 NSCLC
ACHN renal = test system: ACHN renal
BT-549 breast = test system: BT-549 breast
CAKI-1 renal = test system: CAKI-1 renal
COLO 205 colon = test system: COLO 205 colon
DU-145 prostate = test system: DU-145 prostate
EKVX NSCLC = test system: EKVX NSCLC
HCC-2998 colon = test system: HCC-2998 colon
HCT-116 colon = test system: HCT-116 colon
HCT-15 colon = test system: HCT-15 colon
HOP-62 NSCLC = test system: HOP-62 NSCLC
HOP-92 NSCLC = test system: HOP-92 NSCLC
HS 578T breast = test system: HS 578T breast
HT29 colon = test system: HT29 colon
IGROV1 ovarian = test system: IGROV1 ovarian
K-562 leukemia = test system: K-562 leukemia
KM12 colon = test system: KM12 colon
LOX IMVI melanoma = test system: LOX IMVI melanoma
M14 melanoma = test system: M14 melanoma
MALME-3M melanoma = test system: MALME-3M melanoma
MCF7 breast = test system: MCF7 breast
MDA-MB-231 breast = test system: MDA-MB-231 breast
MDA-MB-435 melanoma = test system: MDA-MB-435 melanoma
MDA-MB-468 breast = test system: MDA-MB-468 breast
MOLT-4 leukemia = test system: MOLT-4 leukemia
NCI-H226 lung = test system: NCI-H226 lung
NCI-H23 lung = test system: NCI-H23 lung
NCI-H322M lung = test system: NCI-H322M lung
NCI-H522 lung = test system: NCI-H522 lung
NCI/ADR-RES ovarian = test system: NCI/ADR-RES ovarian
OVCAR-3 ovarian = test system: OVCAR-3 ovarian
OVCAR-4 ovarian = test system: OVCAR-4 ovarian
OVCAR-5 ovarian = test system: OVCAR-5 ovarian
OVCAR-8 ovarian = test system: OVCAR-8 ovarian
PC-3 prostate = test system: PC-3 prostate
RPMI-8226 leukemia = test system: RPMI-8226 leukemia
RXF 393 renal = test system: RXF 393 renal
SF-268 CNS = test system: SF-268 CNS
SF-295 CNS = test system: SF-295 CNS
SF-539 CNS = test system: SF-539 CNS
SK-MEL-28 melanoma = test system: SK-MEL-28 melanoma
SK-MEL-5 melanoma = test system: SK-MEL-5 melanoma
SK-OV-3 ovarian = test system: SK-OV-3 ovarian
SN12C renal = test system: SN12C renal
SNB-19 CNS = test system: SNB-19 CNS
SNB-75 CNS = test system: SNB-75 CNS
SW-620 colon = test system: SW-620 colon
T-47D breast = test system: T-47D breast
TK-10 renal = test system: TK-10 renal
U251 glioblastoma = test system: U251 glioblastoma
UACC-257 melanoma = test system: UACC-257 melanoma
UACC-62 melanoma = test system: UACC-62 melanoma
UO-31 renal = test system: UO-31 renal

Work on `Cc1c(NC(=O)OC[C@@H]2COCCN2)cn2ncnc(Nc3ccc4c(cnn4Cc4cccc(F)c4)c3)c12` yielded a GI50 ([…]-0 renal) of 1.42 µM, a TGI (786-0 renal) of 2.91 µM and a GI50 (A498 renal) of 1.4 µM. It also gave a TGI (A498 renal) of 3.24 µM, a GI50 (A549 NSCLC) of 2.82 µM and a TGI (A549 NSCLC) of 13.6 µM. It also gave a GI50 (ACHN renal) of 0.815 µM, a TGI (ACHN renal) of 12.7 µM and a GI50 (BT-549 breast) of 2.03 µM. It also gave a TGI (BT-549 breast) of 4.36 µM, a GI50 (CAKI-1 renal) of 1.9 µM and a TGI (CAKI-1 renal) of 14.3 µM. It also gave a GI50 (COLO 205 colon) of 2.96 µM, a TGI (COLO 205 colon) of 7.54 µM and a GI50 (DU-145 prostate) of 2.44 µM. It also gave a TGI (DU-145 prostate) of 13.6 µM, a GI50 (EKVX NSCLC) of 1.02 µM and a TGI (EKVX NSCLC) of 5.16 µM. The GI50 (HCC-2998 colon) was 1.66 µM, the TGI (HCC-2998 colon) was 3.61 µM and the GI50 (HCT-116 colon) was 2.35 µM. The TGI (HCT-116 colon) was 4.88 µM, the GI50 (HCT-15 colon) was 2.19 µM and the TGI (HCT-15 colon) was 5.47 µM. It also gave a GI50 (HOP-62 NSCLC) of 2.01 µM, a TGI (HOP-62 NSCLC) of 9.3 µM and a GI50 (HOP-92 NSCLC) of 2.46 µM. For the same compound, the TGI (HOP-92 NSCLC) was 9.57 µM, the GI50 (HS 578T breast) was 2.33 µM and the TGI (HS 578T breast) was 5.32 µM. For the same compound, the GI50 (HT29 colon) was 1.81 µM, the TGI (HT29 colon) was 3.47 µM and the GI50 (IGROV1 ovarian) was 0.0935 µM. For the same compound, the TGI (IGROV1 ovarian) was 4.96 µM, the GI50 (K-562 leukemia) was 1.79 µM and the TGI (K-562 leukemia) was 3.32 µM. For the same compound, the GI50 (KM12 colon) was 3.74 µM, the TGI (KM12 colon) was 13.5 µM and the GI50 (LOX IMVI melanoma) was 1.7 µM. It also gave a TGI (LOX IMVI melanoma) of 3.2 µM, a GI50 (M14 melanoma) of 2.08 µM and a TGI (M14 melanoma) of 4.29 µM. It also gave a GI50 (MALME-3M melanoma) of 2.23 µM, a TGI (MALME-3M melanoma) of 4.77 µM and a GI50 (MCF7 breast) of 3 µM. The TGI (MCF7 breast) was 10.4 µM, the GI50 (MDA-MB-231 breast) was 1.92 µM and the TGI (MDA-MB-231 breast) was 4.65 µM. For the same compound, the GI50 (MDA-MB-435 melanoma) was 4.66 µM, the TGI (MDA-MB-435 melanoma) was 13.3 µM and the GI50 (MDA-MB-468 breast) was 0.0222 µM. It also gave a TGI (MDA-MB-468 breast) of 0.0701 µM, a GI50 (MOLT-4 leukemia) of 1.69 µM and a TGI (MOLT-4 leukemia) of 3.35 µM. It also gave a GI50 (NCI-H226 lung) of 5.08 µM, a TGI (NCI-H226 lung) of 18.1 µM and a GI50 (NCI-H23 lung) of 3.6 µM. For the same compound, the TGI (NCI-H23 lung) was 12.4 µM, the GI50 (NCI-H322M lung) was 0.363 µM and the TGI (NCI-H322M lung) was 11.1 µM. The GI50 (NCI-H522 lung) was 0.255 µM, the TGI (NCI-H522 lung) was 3.82 µM and the GI50 (NCI/ADR-RES ovarian) was 12.6 µM. For the same compound, the TGI (NCI/ADR-RES ovarian) was 25.2 µM, the GI50 (OVCAR-3 ovarian) was 2.67 µM and the TGI (OVCAR-3 ovarian) was 9.15 µM. The GI50 (OVCAR-4 ovarian) was 3.75 µM, the TGI (OVCAR-4 ovarian) was 12.4 µM and the GI50 (OVCAR-5 ovarian) was 3.37 µM. It also gave a TGI (OVCAR-5 ovarian) of 16.1 µM, a GI50 (OVCAR-8 ovarian) of 4.46 µM and a TGI (OVCAR-8 ovarian) of 16.2 µM. It also gave a GI50 (PC-3 prostate) of 3 µM, a TGI (PC-3 prostate) of 7.88 µM and a GI50 (RPMI-8226 leukemia) of 2.29 µM. For the same compound, the TGI (RPMI-8226 leukemia) was 4.19 µM, the GI50 (RXF 393 renal) was 1.67 µM and the TGI (RXF 393 renal) was 3.34 µM. It also gave a GI50 (SF-268 CNS) of 0.943 µM, a TGI (SF-268 CNS) of 3.78 µM and a GI50 (SF-295 CNS) of 2.28 µM. It also gave a TGI (SF-295 CNS) of 4.89 µM, a GI50 (SF-539 CNS) of 1.95 µM and a TGI (SF-539 CNS) of 3.86 µM. The GI50 (SK-MEL-28 melanoma) was 2.15 µM, the TGI (SK-MEL-28 melanoma) was 4.05 µM and the GI50 (SK-MEL-5 melanoma) was 1.51 µM. For the same compound, the TGI (SK-MEL-5 melanoma) was 2.9 µM, the GI50 (SK-OV-3 ovarian) was 1.77 µM and the TGI (SK-OV-3 ovarian) was 5.72 µM. For the same compound, the GI50 (SN12C renal) was 1.96 µM, the TGI (SN12C renal) was 14.4 µM and the GI50 (SNB-19 CNS) was 3.72 µM. For the same compound, the TGI (SNB-19 CNS) was 13.8 µM, the GI50 (SNB-75 CNS) was 2.96 µM and the TGI (SNB-75 CNS) was 9 µM. It also gave a GI50 (SW-620 colon) of 3.8 µM, a TGI (SW-620 colon) of 12 µM and a GI50 (T-47D breast) of 0.0467 µM. For the same compound, the TGI (T-47D breast) was 1.06 µM, the GI50 (TK-10 renal) was 0.661 µM and the TGI (TK-10 renal) was 3.48 µM. The GI50 (U251 glioblastoma) was 1.91 µM, the TGI (U251 glioblastoma) was 3.54 µM and the GI50 (UACC-257 melanoma) was 2.03 µM. For the same compound, the TGI (UACC-257 melanoma) was 3.98 µM, the GI50 (UACC-62 melanoma) was 1.91 µM and the TGI (UACC-62 melanoma) was 3.56 µM. The GI50 (UO-31 renal) was 1.47 µM and the TGI (UO-31 renal) was 3.73 µM.
